“And” between values parts separate entries of the source, which are not always exact repeats. Equal entries are not always repeated.

Series [1] can be described thus: Log P by HPLC on reversed phase columns (LC-UV), method [a]: acidic range, 0.1% formic acid in water / acetonitrile. It counts as physicochemical.
Protocol: Measurement of Log P Values
Measurement of Log P values as provided herein was performed according to EEC directive 79/831 Annex V.A8 by HPLC (High Performance Liquid Chromatography) on reversed phase columns with the following methods: • ^[a]
If more than one Log P value is available within the same method, all the values are given and separated by “+”.
Series [2] deals with Fusarium culmorum. Briefly: in vitro-Test with fungal microorganisms, Method A (tables G1-G4). Type of series: cell-based. The note with it: Table G1. The procedure, abridged:
(§1)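 Readout: extinction at 620 nm, measured at start and again 3-5 days later, giving efficacy versus untreated control (0% = control growth, 100% = no growth). Compounds were evaporated from methanol/emulsifier before adding potato dextrose medium with fungal spores or mycelium; incubation 20° C, 85% RH.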

Series [3] relates to Ustilago segetum var. avenae. In words: in vitro-Test with fungal microorganisms, Method B (tables I6-I11). It counts as cell-based. In a few lines:
(§2)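 Cpd in MeOH + alkylaryl-polyglycol-ether, solvent evaporated; liquid medium + fungal spores/mycelium added; OD600 read; 3–7 d, 20° C., 85% RH; growth inhibition by photometry, % efficacy vs untreated ctrl.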

For series [4], the system named is Parastagonospora nodorum. In words: in vitro-Test with fungal microorganisms, Method A (tables H1-H4). It counts as cell-based. The procedure, abridged: as §1
Another series deals with Cordana musae. In words: in vitro-Test with fungal microorganisms, Method A (tables E1-E8). Type of series: cell-based. Particulars: single substance. In a few lines: as §1
The subject of another series is Alternaria alternata. In words: in vitro-Test with fungal microorganisms, Method B (tables A13-A22). It counts as cell-based. The procedure, abridged: as §2
The subject of series [5] is Parastagonospora nodorum. In words: in vitro-Test with fungal microorganisms, Method B (tables H5-H8). Type of series: cell-based. In a few lines: as §2
Series [6] deals with Cercospora beticola. In words: in vitro-Test with fungal microorganisms, Method A (tables C1-C10). Type of series: cell-based. In a few lines:
as §1

The subject of series [7] is Botrytis cinerea. In words: in vitro-Test with fungal microorganisms, Method A (tables B1-B14). It counts as cell-based. Particulars: for Efficacy %: alone. In a few lines:
as §1

In series [8] the test system is Diaporthe citri. In words: in vitro-Test with fungal microorganisms, Method A (tables F1-F11). Type of series: cell-based. The procedure, abridged: as §1
For the next series, the system named is Alternaria alternate. Briefly: in vitro-Test with fungal microorganisms, Method A (tables A1-A12). It counts as cell-based, Alternaria alternata. Particulars: applied alone. The procedure, abridged:
as §1

Series [9] deals with Diaporthe citri. Briefly: in vitro-Test with fungal microorganisms, Method B (tables F12-F15). It counts as cell-based. The note with it: Table F14. The procedure, abridged:
as §2

The subject of series [10] is Ustilago segetum var. avenae. Briefly: in vitro-Test with fungal microorganisms, Method A (tables I1-I5). It counts as cell-based. Particulars: alone. In a few lines: as §1
A further series deals with Colletotrichum coccodes. In words: in vitro-Test with fungal microorganisms, Method B (tables J1-J11). It counts as cell-based. The procedure, abridged:
as §2

For series [11], the system named is Fusarium culmorum. Briefly: in vitro-Test with fungal microorganisms, Method B (tables G5-G15). Type of series: cell-based. Particulars: single active compound. The procedure, abridged:
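Efficacy scale: 0% means growth equal to the untreated control, 100% means none detected. Compounds are dried from methanol with emulsifier before adding inoculated growth medium; incubation at 20° C., 85% relative humidity for 3 to 7 days precedes photometric inhibition readout.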

In series [12] the test system is Colletotrichum lindemuthianum. In words: in vitro-Test with fungal microorganisms, Method A (tables D1-D8). Type of series: cell-based. In a few lines: as §1
The test system of series [13] is Botrytis cinerea. Briefly: in vitro-Test with fungal microorganisms, Method B (tables B15-B18). Type of series: cell-based. The procedure, abridged:
as §2

For series [14], the system named is Cercospora beticola. Briefly: in vitro-Test with fungal microorganisms, Method B (tables C11-C20). It counts as cell-based. In a few lines: as §2
[15] abbreviates: method [a], acidic range (0.1% formic acid), Table 17, compounds of formula (10).

By chromatographic logP is commonly meant a lipophilicity value derived from retention on a column. Turning to `N/C(=N\O)c1cc(Cl)nnc1Oc1cccc(C2CC2)c1` [Compound 10-08], the chromatographic logP in series [1] (setting [15]) was 2.19.

On to `N/C(=N\O)c1cc(Cl)nnc1Oc1cccc(Cl)c1` [Compound 10-04], for which the chromatographic logP in series [1] (setting [15]) is 2.

As for `N/C(=N\O)c1cc(Cl)nnc1Oc1cccc(C2CC2)c1F` [Compound 10-07], the chromatographic logP in series [1] (setting [15]) worked out at 2.34.

Regarding `COc1cccc(Oc2nnc(Cl)cc2C#N)c1` [Compound 9-08], the chromatographic logP in series [1] (method [a], acidic range (0.1% formic acid), Table 15, compounds of formula (9)) amounted to 2.75.

In the case of `N/C(=N\O)c1cc(Cl)nnc1Oc1cccc(Br)c1F` [Compound 10-05], the chromatographic logP in [1] (setting [15]) is 2.21.

Turning to `Cc1cc(C(=O)NC(CON2C(=O)c3ccccc3C2=O)Cc2ccc(C)c(C)c2)c(Oc2cccc(Cl)c2F)nn1` (stereo not drawn) [Compound 3-45], the LogP in series [1] (method [a], acidic range (0.1% formic acid), Table 7, compounds of formula (3)) is 4.42^[a].

Turning to `Cc1ccc(CC(CCl)NC(=NO)c2cc(Cl)nnc2Oc2cccc(C(F)(F)F)c2)c(C)c1` (stereo not drawn) [Compound 20-08], in [1] (method [a]), the LogP was 2.77^[a].

Consider `FC(F)(F)c1cccc(Oc2nnc(Cl)cc2C2=NOC[C@H](Cc3ccccc3)N2)c1` [Compound I-070, (5S)-5-benzyl-3-[6-chloro-3-[3-(trifluoro-methyl)phenoxy]pyridazin-4-yl]-5,6-dihydro-4H-1,2,4-oxadiazine], for which, in [1] (method [a]: HPLC, acidic range, 0.1% formic acid in water / acetonitrile), the LogP was 3.81^[a].

In the case of `CC(O)(Cn1cncn1)c1ccc(Oc2ccc(Cl)cc2)cc1C(F)(F)F` (stereo not drawn) [(1.055) mefentrifluconazole, mefentrifluconazole], the Efficacy was found to be 20% in the series on Fusarium culmorum [2] (0.008 ppm alone); 22% with Fusarium culmorum [2] (0.04 ppm alone); 5% in the series on Fusarium culmorum [2] (0.2 ppm alone); 33% with Fusarium culmorum [2] (1.0 ppm alone); 89% in the series on Parastagonospora nodorum [4] (0.008 ppm); 99% with Parastagonospora nodorum [4] (0.04 ppm). The Efficacy is 99% in the series with Parastagonospora nodorum [4] (0.2 ppm); 100% in the series on Parastagonospora nodorum [4] (1.0 ppm); 90% in the series on Parastagonospora nodorum [4] (single active compound, 0.008 ppm); 97% in the series with Parastagonospora nodorum [4] (single active compound, 0.04 ppm); 100% with Parastagonospora nodorum [4] (single active compound, 0.2 ppm); 100% in the series on Parastagonospora nodorum [4] (single active compound, 1.0 ppm). Besides, the Efficacy in the series with Alternaria alternata (0.008 ppm) turned out to be 9%; in the series with Alternaria alternata (0.04 ppm), 19%; with Alternaria alternata (0.2 ppm) it was 91%; with Alternaria alternata (single compound, 0.2 ppm), 65%; with Alternaria alternata (single compound, 1 ppm) it was 99%; with Parastagonospora nodorum [5] (0.008 ppm), 84%. Moreover, the Efficacy with Parastagonospora nodorum [5] (0.04 ppm) is 99%; with Botrytis cinerea [7] (0.008 ppm) it was 0%; in the series with Botrytis cinerea [7] (0.04 ppm), 37%; with Botrytis cinerea [7] (0.2 ppm) it was 78%; in the series on Diaporthe citri [8] (applied alone, 0.008 ppm) it was 0%; with Diaporthe citri [8] (applied alone, 0.04 ppm), 60% and 38%. Also, the Efficacy with Diaporthe citri [8] (applied alone, 0.2 ppm) amounted to 100%; with Diaporthe citri [8] (applied alone, 1.0 ppm) it was 100%; in the series on Diaporthe citri [8] (single active, 0.008 ppm), 17%; in the series with Diaporthe citri [8] (single active, 0.04 ppm), 69%; with Diaporthe citri [8] (single active, 0.2 ppm) it was 99%; with Diaporthe citri [8] (single active, 1.0 ppm), 100%. Further, the Efficacy with Diaporthe citri [9] (0.008 ppm alone) was 8%; in the series with Diaporthe citri [9] (0.04 ppm alone) it was 21%; in the series with Diaporthe citri [9] (0.2 ppm alone), 94%; in the series with Diaporthe citri [9] (1 ppm alone), 99%; in the series with Fusarium culmorum [11] (0.008 ppm), 11% and 3%; with Fusarium culmorum [11] (0.04 ppm) it was 16% and 24%. Further, the Efficacy with Fusarium culmorum [11] (1 ppm) was 24% and 33%. Also, the Efficacy % is 4% in series [3] (0.008 ppm); 3% in series [3] (0.04 ppm); 41% in [3] (0.2 ppm); 100% in series [3] (1 ppm); 53% in [3] (alone, 0.2 ppm); 100% in [3] (alone, 1 ppm). Also, the Efficacy % in the series on Cordana musae (0.008 ppm) was 4%; in the series with Cordana musae (0.04 ppm) it was 29%; in the series with Cordana musae (0.2 ppm), 100%; with Cordana musae (1.0 ppm), 100%; in the series with Cercospora beticola [6] (0.008 ppm) it was 12%; in the series on Cercospora beticola [6] (0.008 ppm alone) it was 60% and 80%. For the same compound, the Efficacy % in the series on Cercospora beticola [6] (0.04 ppm) was 100%; with Cercospora beticola [6] (0.04 ppm alone), 100% and 91%; with Cercospora beticola [6] (0.2 ppm) it was 100%; in the series on Cercospora beticola [6] (0.2 ppm alone), 100%; with Cercospora beticola [6] (1.0 ppm) it was 100%; with Cercospora beticola [6] (1.0 ppm alone) it was 100%. For the same compound, the Efficacy % was 0% in the series on Botrytis cinerea [7] (0.008 ppm); 0% with Botrytis cinerea [7] (0.04 ppm); 53% in the series on Botrytis cinerea [7] (0.2 ppm); 100% in the series on Botrytis cinerea [7] (1.0 ppm); 9% in the series with Alternaria alternate (0.008 ppm); 58% and 32% in the series with Alternaria alternate (0.04 ppm). For the same compound, the Efficacy % with Alternaria alternate (0.2 ppm) was 96% and 100%; with Alternaria alternate (1.0 ppm), 100% and 99%; in series [10] (0.008 ppm), 0%; in [10] (0.04 ppm) it was 4%; in [10] (0.2 ppm), 100%; in series [10] (1.0 ppm) it was 100%. The Efficacy % is 0% with Colletotrichum coccodes (0.008 ppm); 34% in the series on Colletotrichum coccodes (0.2 ppm); 100% with Colletotrichum coccodes (1 ppm); 22% in the series on Colletotrichum coccodes (single active compound at 0.2 ppm); 0% in [12] (mixing partner alone, 0.008 ppm); 0% in series [12] (mixing partner alone, 0.04 ppm). Besides, the Efficacy % is 6% in series [12] (mixing partner alone, 0.2 ppm); 13% in [12] (mixing partner alone, 1.0 ppm); 7% and 0% in series [12] (single active at 0.008 ppm); 0% and 3% in series [12] (single active at 0.04 ppm); 11% in series [12] (single active at 0.2 ppm); 0% in [12] (single active at 1.0 ppm). Further, the Efficacy % in the series on Botrytis cinerea [13] (0.008 ppm alone) came out at 0%; in the series with Botrytis cinerea [13] (0.04 ppm alone), 0%; in the series on Botrytis cinerea [13] (0.2 ppm alone) it was 30%; in the series on Cercospora beticola [14] (0.008 ppm), 24%; in the series on Cercospora beticola [14] (0.04 ppm), 84%; in the series on Cercospora beticola [14] (single compound, 0.008 ppm), 14%. In addition, the Efficacy % in the series on Cercospora beticola [14] (single compound, 0.04 ppm) was determined as 93%.

For the compound `CON(C)C(=O)c1cc(Cl)nnc1Oc1cccc(C(F)(F)F)c1` [Compound 1-07], the LogP in [1] (method [a], acidic range (0.1% formic acid), Table 3, compounds of formula (1)) was 2.90^[a].

Take `N/C(=N\O)c1cc(Cl)nnc1Oc1cccc(C(F)F)c1F` [Compound 10-09]: the chromatographic logP in [1] (setting [15]) was 1.91.
